In US7507739B2, “6-[(substituted)phenyl]triazolopyrimidines as anticancer agents” (Wyeth, priority 2003, dated 2009):

Tested on: MAP-rich tubulin
Assay: Tubulin polymerization test with MAP-rich tubulin
Assay type: biochemical, bovine
Conditions: 0.3 μM compound, 20 min, fold enhancement over control
Procedure, shortened: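 Bovine brain MAP-rich tubulin (1.3 mg/mL) in PEM buffer pH 6.9 with 1 mM GTP, compounds at 0.3 μM final (0.3% DMSO), 24° for 60 min. Turbidity read at 340 nm each minute, baseline-subtracted; mean A340 at 20 min divided by solvent control gives fold enhancement.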

Structure (SMILES)	A340 Compound/A340 Control
C[C@H](Nc1c(-c2c(F)cc(OCCCN(C)C)cc2F)c(Br)nc2ncnn12)C(F)(F)F [Example 25, 5-Bromo-6-{4-[3-(dimethylamino)propoxy]-2,6-difluorophenyl}-N-[(1S)-2,2,2-trifluoro-1-methylethyl][1,2,4]triazolo[1,5-a]pyrimidin-7-amine]	7.2
CC(=O)O[C@H]1C(=O)[C@@]2(C)[C@H]([C@H](OC(=O)c3ccccc3)[C@]3(O)C[C@H](OC(=O)[C@H](O)[C@@H](NC(=O)c4ccccc4)c4ccccc4)C(C)=C1C3(C)C)[C@]1(OC(C)=O)CO[C@@H]1C[C@@H]2O [Paclitaxel, reference compound]	8.5
